Results on two compounds are retold here after patent US8691863B2, “Use of active substance combinations having insecticidal properties for controlling animal pests from the stink bug family” (Bayer CropScience AG, priority 2007, dated 2014).

Test [1] has as its system brown stink bug (Euschistus heros). Nature of the test: Field trial on soybean plots against brown stink bug, kill efficiency of the nymphs. Type of test: in vivo. The following applies: nymphs on soybean cv. BRS232, 14 days after spray treatment; application rate g a.i./ha: imidacloprid 72, (I-2) 24, mixture 72 + 24, methamidophos 480; tank mix with 0.1% a.i. methylated soya oil. The text has this:
(§1) The expected activity for a given combination of two active substances can be calculated as described by S. R. Colby, Weeds 15 (1967), 20-22, as follows:
(§2) If the actual insecticidal kill efficiency is greater than calculated, then the combination is superadditive in its kill efficiency, i.e. a synergistic effect is present. In this case, the kill efficiency actually observed must be greater than the value for the expected kill efficiency (E) calculated with the abovementioned formula.
(§3) After the desired period of time, the kill efficiency is determined in %. Here, 100% means that all animals have been killed; 0% means that no animals have been killed.
Methamidophos (SL 600) was tested concomitantly as commercially available standard. The water application rate is 200 l/ha.

Test [2] relates to red-banded stink bug (Piezodorus guildinii). The test is described as follows: Caged soybean plot trial against red-banded stink bug, kill efficiency of the adults. The note with it: application rate g a.i./ha: imidacloprid 70, (I-2) 24, mixture 72 + 24, methamidophos 480, tank mix with 0.1% a.i. methylated soya oil; for Kill efficiency as calculated by Abbott (%) 1 d: adults on soybean cv. CO-32, 1 day after spray treatment; for Kill efficiency as calculated by Abbott (%) 3 d: adults on soybean cv. CO-32, 3 days after spray treatment. It counts as in vivo.
Excerpt: as §1, §2, §3
Plots approximately 1 m^2 in size, provided with cages and planted with soybean plants (Glycine max) cv. “CO-32” are treated in four replications against the red-banded stink bug (Piezodorus guildinii) using a pneumatically operated backpack sprayer. A mixture of the active substance (I-2) and imidacloprid (SC 480) is applied in comparison with the active substance (I-2) (SC 240) on its own and imidacloprid (SC 200) on its own at the application rates specified, as a tank mix with 0.1% a.i. methylated soya oil (EC 850). Methamidophos (SL 600) was tested concomitantly as commercially available standard. The water application rate is 300 l/ha. The evaluation is performed 1 and 3 days after the treatment by determining the kill efficiency of the adults.

As for `O=[N+]([O-])/N=C1\NCCN1Cc1ccc(Cl)nc1` [Imidacloprid, imidacloprid], the “Kill efficiency as calculated by Abbott (%) 14 d” value in test [1] was 21%. In addition, in test [2], the “Kill efficiency as calculated by Abbott (%) 1 d” value was 65% and the “Kill efficiency as calculated by Abbott (%) 3 d” value is recorded as 65%.
Consider `COP(N)(=O)SC` (stereo not drawn) [Methamidophos], for which the “Kill efficiency as calculated by Abbott (%) 14 d” value in test [1] is given as 27%. In test [2], the “Kill efficiency as calculated by Abbott (%) 1 d” value is 52.5% and the “Kill efficiency as calculated by Abbott (%) 3 d” value is 87.5%.
